Data from patent US8063108B2, “Method for modulating microbial quorum sensing” (priority 2004, dated 2011).

Tests used:
Format in all cases: cell-based
[1] = target: T1, LasR transcriptional activator (Pseudomonas aeruginosa, UniProt P25084); test: P. putida F117 pKRC12 lasB-GFP reporter assay (secondary screens); details: compounds 10 μM, relative fluorescence (fluorescence divided by absorbance at 600 nm) as percent of AHL induced control; for % Activity of AHL Standard, 3 oxo C10HSL: 3oxoC10HSL 100 nM; for % Activity of AHL Standard, 3 oxo C12HSL: 3oxoC12HSL 50 nM
T1 construct: expressed in transfected cells; host or cells: Pseudomonas putida F117 carrying plasmid pKRC12 (lasR, PlasB-gfp)
T1 sequence (P25084 whole entry): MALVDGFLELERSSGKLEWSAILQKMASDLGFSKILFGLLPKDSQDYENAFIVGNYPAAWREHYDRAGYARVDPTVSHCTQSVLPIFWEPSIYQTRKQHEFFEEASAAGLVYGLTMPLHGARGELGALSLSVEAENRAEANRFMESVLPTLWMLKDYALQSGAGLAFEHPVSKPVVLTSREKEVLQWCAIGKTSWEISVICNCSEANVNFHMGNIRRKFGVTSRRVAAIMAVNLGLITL
Method: Additional screens were performed similar to screen described in the initial screen, except assays were performed in 96-well microtiter plates at a total volume of 100 μl. The reporter strain P. putida F117 pKRC12 was grown overnight at 28° C. in LB media, diluted with LB media to achieve an optical density of 0.05 at 600 nm (OD600), and 96 μl of cells were aliquoted to 96-well plates. Compounds were added at a final concentration of 100 nm or as otherwise indicated in each experiment and the bacterial cells were incubated with the compounds for approximately 30 minutes prior to the addition of 3oxoC10HSL or 3oxoC12HSL at a final concentration of 100 nM and 50 nM respectively or as indicated for each experiment. Fluorescence was measured at regular intervals after 3 hours using the Wallac Victor2 plate reader with an excitation wavelength of 485 nm and emission detection at 515 nm. Representative results are presented in FIGS. 6A and B and present the percentage of GFP expression activity as a function of expression of the AHL (3oxoC10 HSL) control. The numbers on the X axis refer to the Chembridge library reference number. Effects on growth of the antagonists were determined by measuring the optical density at 600 nm of growing bacterial cultures P. putida F 117 pKRC 12. […] (Reference for P. putida F117 pKRC12: Steidle, A., K. Sigl, R. Schuhegger, A. Ihring, M. Schmid, S. Gantner, M. Stoffels, K. Riedel, M. Givskov, A. Hartmann, C. Langebartels, and L. Eberl. 2001. Visualization of N-acylhomoserine lactone-mediated cell-cell communication between bacteria colonizing the tomato rhizosphere. Appl Environ Microbiol 67:5761-70). […]
This example presents representative results of experiments designed to test the activity of putative antagonists when challenged with different concentrations of synthetic AHLs, particularly 3oxoC12HSL. Assays were conducted with P. putida F117 pKRC12 reporter strain as described in the methods for secondary screens.
Following the initial screens to identify strong antagonists of the LasR transcriptional activator, further investigation of additional compounds in the Chembridge library was carried out. In particular, the experiments described in Example 1 identified three compounds that shared a thiocarbamate structure, as also shown in FIG. 16. To further investigate structure-activity relationships, the inventors examined the antagonist activity of 19 additional compounds with related thiocarbamate structures, using the procedures described in Example 1. The results are presented in Table 4, expressed as the percent activity of the AHL induced control. The % activity represents the relative fluorescence, which is the fluorescence observed in each assay divided by bacterial cell density as measured by absorbance at 600 nm. Compounds were assayed at a concentration of 10 μM. Assays were conducted with P. putida F117 pKRC12 reporter strain as described in the methods for secondary screens. The 3oxoC10HSL and 3oxoC12HSL were assayed at concentrations of 100 nM and 50 nM, respectively.

TraR = target: T2, TraR (Agrobacterium tumefaciens, UniProt P33905); test: Agrobacterium tumefaciens KYC55 β-Galactosidase induction plate assay; details: 1 μl of 0.1 mg/ml spotted
T2 construct: expressed in transfected cells; host or cells: Agrobacterium tumefaciens KYC55
T2 sequence (P33905 whole entry): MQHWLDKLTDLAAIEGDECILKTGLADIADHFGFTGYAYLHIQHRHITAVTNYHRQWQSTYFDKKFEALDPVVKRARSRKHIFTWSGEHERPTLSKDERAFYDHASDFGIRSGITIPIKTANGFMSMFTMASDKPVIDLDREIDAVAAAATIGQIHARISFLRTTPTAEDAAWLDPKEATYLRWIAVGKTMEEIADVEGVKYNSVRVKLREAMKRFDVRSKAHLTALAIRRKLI
Method: (§1) Additional screens were performed as described above, except fluorescence was measured using the Wallac Victor2 plate reader with an excitation wavelength of 485 nm and emission detection at 515 nm. E. coli reporter induction assays were performed as described for P. putida. Chromobacterium violaceum CV026 and Agrobacterium tumefaciens KYC55 induction assays were performed by applying compounds to a lawn of bacteria on agar plates. C. violaceum CV026 inhibition assays were performed by applying compounds to a lawn of bacteria on agar plates containing synthetic N-3-oxohexanoyl-L-homoserine lactone.
Agrobacterium tumefaciens KYC55 is a mutant strain that is unable to produce AHLs. Exogenous AHLs must be added to induce the LuxR-type transcriptional regulator which is designated TraR in this strain. This strain contains a plasmid that encodes β-Galactosidase under the transcriptional control of TraR. Activation of TraR is indicated by the production of β-Galactosidase. Cultures were grown overnight at 28° C. in AMA broth. Induction assays were performed by applying compounds to a lawn of bacteria on AMA agar plates containing […] of X-Gal per ml. […] Activation of quorum sensing was qualitatively measured by observing the production the blue pigment that results from β-Galactosidase cleavage of the X-gal substrate in areas where compounds were applied. […]

CviR = target: T3, CviR (Chromobacterium violaceum, UniProt D3W065); test: Chromobacterium violaceum CV026 violacein plate assay; details: 1 μl of 0.1 mg/ml spotted
T3 construct: endogenous in cells; host or cells: Chromobacterium violaceum CV026
T3 sequence (D3W065 1-265): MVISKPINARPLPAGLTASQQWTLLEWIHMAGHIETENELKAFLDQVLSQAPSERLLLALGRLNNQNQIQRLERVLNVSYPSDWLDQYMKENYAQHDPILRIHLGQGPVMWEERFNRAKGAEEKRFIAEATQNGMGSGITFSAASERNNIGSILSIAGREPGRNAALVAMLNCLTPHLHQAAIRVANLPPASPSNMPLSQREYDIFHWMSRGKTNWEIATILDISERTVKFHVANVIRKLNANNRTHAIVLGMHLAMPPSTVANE
Method: as §1
Chromobacterium violaceum CV026 is a mutant that is unable to produce AHLs. Exogenous AHLs must be added to induce the LuxR-type transcriptional regulator which is designated CviR in this strain. Activation of CviR is indicated by the production of violacein. Cultures were grown overnight at 28° C. in LB media. […] Inhibition of quorum sensing was qualitatively measured by observing the lack of production of violacein in areas where compounds were applied. […] Activation of quorum sensing was qualitatively measured by observing the production of violacein in areas where compounds were applied. […]

| Compound | % Activity of AHL Standard, 3 oxo C10HSL [1] | % Activity of AHL Standard, 3 oxo C12HSL [1] | Induction of β-Galactosidase (blue zone), control (TraR) | Activation of quorum sensing (violacein production), control (CviR) |
| --- | --- | --- | --- | --- |
| NC(=O)SCC(=O)Nc1ccccc1O [Compound 19] | 38.60% | 82.90% | – | – |
| Cc1cccc(NC(=O)CSC(N)=O)c1 [Compound 10] | 49.10% | 55.40% | – | – |
| CCCC(=O)CC(=O)N[C@H]1CCOC1=O [Compound 3oxoC6HSL, N-(3-oxohexanoyl)-L-homoserine lactone] | – | – | activated gene expression | activated gene expression |
| NC(=O)SCC(=O)Nc1ccc(Cl)c(Cl)c1 [Compound 20] | 40.50% | 87.70% | – | – |
| COc1ccccc1NC(=O)CSC(N)=O [Compound 14] | 46.80% | 68.60% | – | – |
| COc1ccc(NC(=O)CSC(N)=O)cc1 [Compound 7] | 36.45% | 49.85% | – | – |
| NC(=O)SCC(=O)Nc1ccccc1Br [Compound 11] | 36.60% | 56.70% | – | – |
| Cc1ccc(NC(=O)CSC(N)=O)cc1Cl [Compound 3] | 32.27% | 41.63% | – | – |
| NC(=O)SCC(=O)Nc1ccccc1Cl [Compound 8] | 32.72% | 51.98% | – | – |
